# “Also recorded” adds a separate entry of the source.
# How the values were obtained:
# [1] = system: B16F10 cells; assay: RT-qPCR of interferon stimulated genes in B16F10 cells; type: cell-based, murine; settings: 0.1-1 μM, 7 days
# Protocol: (§1) Total RNA was extracted using the RNeasy Mini Kit (Qiagen) according to the manufacturer's protocol. Extracted RNA (1 μg) was transcribed into cDNA using SuperScript IV VILO master mix with ezDNase enzyme according to the manufacturer's protocol (ThermoFisher). The cDNA samples were diluted and used for real-time quantitative PCR (RT-qPCR). Taqman master mix (ThermoFisher) and gene-specific primers were used for PCR amplification and detection using a QuantStudio 6 Flex Real-Time PCR System (ThermoFisher). The RT-qPCR data were normalized to GAPDH and HPRT (housekeeping genes) and presented as fold change of gene expression in the test sample compared to the control sample.
# [2] = system: SKBR3, MDA-MB-157 and MDA-MB-436 cells; assay: RT-qPCR of ISGs in human tumor cells; type: cell-based; settings: 2 μM, 7 days
# Protocol: RT-qPCR analysis of selected ISGs and IFNs in human SKBR3, MDA-MB-157 and MDA-MB-436 cells treated with vehicle or CARM1 inhibitor (2 μM) for 7 days (n=3/group).
# as §1
# [3] = system: B16F10 tumor cells; assay: dsDNA damage, γH2AX immunofluorescence; type: cell-based, murine; settings: B16F10 melanoma cells
# Protocol: Representative immunofluorescence images (left) of γH2AX antibody labeling (purple); nuclei labeled with DAPI. Quantification of number of γH2AX foci/nucleus (right). Data are shown as mean±SEM, ***p<0.001, by unpaired two-sided Mann-Whitney test. Scale bar—[…].
# Cells were grown on glass coverslips, washed with PBS and fixed in 4% paraformaldehyde in PBS for 20 min at room temperature. Cells were permeabilized in 0.2% Triton X-100 for 15 min before blocking for 30 min with 10% serum-containing blocker (ThermoFisher). Coverslips were then incubated with primary antibody overnight […] in a humidified chamber, followed by incubation with a secondary antibody for 1 hour. Primary and secondary antibodies were diluted in blocking buffer, and […]. Coverslips were mounted using Prolong Gold Antifade Mounting Medium with DAPI (ThermoFisher). Imaging was performed using a Hamamatsu ORCA-Flash4.0 V3 Digital CMOS camera and Nikon Ti-E Motorized Microscope 2000U microscope with Plan Apo Lamda 60×/1.40 Oil Ph3 DM objectives. Images were captured with Nikon Elements Acquisition Software. All scoring was performed under blinded conditions. Three independent experiments with three biological replicates per group were performed.
# [4] = system: B16F10 melanomas; assay: Flow cytometry of tumor-infiltrating immune cells, B16F10 melanomas treated with CARM1 inhibitor; type: in vivo, mouse
# Source text: FIG. 15A illustrates changes in tumor microenvironment induced by monotherapy or combination therapy with CARM1 inhibitor, showing treatment of mice with B16F10 melanomas with CARM1 inhibitor or vehicle control. Mice also received isotype control, CTLA-4 or PD-1 mAbs, as indicated (n=5 mice/group). Representative flow plots of CD8 T cells gated on live/singlets/CD45+/CD3+ cells from indicated groups are shown on left. Quantification of CD8 T cells is shown as percentage of CD3+ T cells (middle) or number per gram of tumor (right) for the indicated treatment groups.
# FIG. 15B illustrates changes in tumor microenvironment induced by monotherapy or combination therapy with CARM1 inhibitor, showing number of intra-tumoral granzyme B+CD8+ T cells per gram of tumor for the indicated treatment groups (n=5 mice/group). Representative flow plots are shown on left.
# FIG. 15C illustrates changes in tumor microenvironment induced by monotherapy or combination therapy with CARM1 inhibitor, showing number of intra-tumoral IL2+CD8+ T cells per gram of tumor for the indicated treatment groups (n=5 mice/group).
# FIG. 15D illustrates changes in tumor microenvironment induced by monotherapy or combination therapy with CARM1 inhibitor, showing number of intra-tumoral IFNγ+CD8+ T cells per gram of tumor for the indicated treatment groups (n=5 mice/group). Representative flow plots are shown on left.
# FIG. 15E illustrates changes in tumor microenvironment induced by monotherapy or combination therapy with CARM1 inhibitor, showing number of intra-tumoral perforin+CD8+ T cells per gram of tumor for the indicated treatment groups (n=5 mice/group).
# FIG. 15F illustrates changes in tumor microenvironment induced by monotherapy or combination therapy with CARM1 inhibitor, showing analysis of intra-tumoral PD1+CD8+ T cells (quantified as percentage of CD8+ T cells) for the indicated treatment groups (n=5 mice/group). Representative flow plots (left) and quantification of PD-1 expression as percentage of CD8 T cells (middle) or MFI (right) are shown.
# FIG. 16A illustrates changes in tumor microenvironment induced by monotherapy or combination therapy with CARM1 inhibitor, showing treatment of mice with B16F10 melanomas with CARM1 inhibitor or vehicle control. Mice also received isotype control, CTLA-4 or PD-1 mAbs, as indicated (n=5 mice/group). Quantification of CD4+ T cells (number per gram of tumor) for the indicated treatment groups.
# FIG. 16B illustrates changes in tumor microenvironment induced by monotherapy or combination therapy with CARM1 inhibitor, showing quantification of IFNγ+ cells (as percentage of CD4+ T cells) for the indicated treatment groups.
# FIG. 16C illustrates changes in tumor microenvironment induced by monotherapy or combination therapy with CARM1 inhibitor, showing quantification of FoxP3+ Treg cells (as percentage of CD4+ T cells) for the indicated treatment groups.
# FIG. 16D illustrates changes in tumor microenvironment induced by monotherapy or combination therapy with CARM1 inhibitor, showing quantification of the CD8/FoxP3 Treg ratio for the indicated treatment groups.
# FIG. 16E illustrates changes in tumor microenvironment induced by monotherapy or combination therapy with CARM1 inhibitor, showing number of intra-tumoral NK cells (left), dendritic cells (live, singlet, CD45+CD3−F4/80-CD11c+ MHCII^hi) (middle) and macrophages (live, singlet, CD45+CD3−F4/80+) (right) calculated per gram of tumor.
# Inhibitor treatment was performed for 14 days because limited quantities of the compound were available.
# Tumors were excised on day 18 following tumor cell inoculation and cut into small pieces using sterile scalpels in serum-free RPMI 1640 media (ThermoFisher #11875093). […]
# [5] = system: malignant melanoma xenograft model; settings: oral dosing; cited from earlier work
# [6] = system: RPMI-8226; settings: immunodeficient mouse model; cited from earlier work
# [7] = system: B16F10 tumors; assay: B16F10 melanoma tumor model
# Protocol: B16F10 or MC38 tumor cells (2×10^5) were injected subcutaneously in 50 μL of PBS into syngeneic C57BL/6J mice. […] Mice receiving an isotype control mAb (Bio X Cell, clone HRPN #BE0088) at the same dose in PBS were used as controls.
# For checkpoint blockade experiments, tumor-bearing mice were administered with anti-CTLA4 mAb (clone 9H10, #BP0131, 100 μg/injection) or corresponding isotype control Ab (polyclonal Syrian hamster IgG, 100 μg/mouse). Alternatively, mice received anti-PD1 (clone 29F.1A12, #BE0273, 200 m/injection) or rat IgG2a isotype control Ab, anti-trinitrophenol (Clone: 2A3, 200 μg/injection) starting on day 7 post tumor inoculation and then every 3rd day.
# [8] = all three CARM1 inhibitor treatment groups
# [9] = combined with PD-1 or CTLA-4 mAbs
# [10] = 150 mg/kg b.i.d. orally days 7-21, in combination with CTLA-4 mAb
structure (smiles),measurement,setting,value
CNC[C@@H](O)COc1ccc(Cl)c(-c2nc(-c3c(C)noc3C)c(C)c(N3CC4(CCN(C(=O)OC)CC4)C3)n2)c1 (stereo in doubt) [EZM2302],interferon stimulated gene (ISG) expression / mRNA levels,[1],induced up regulation of the ISGs expression; also recorded: significantly increased the mRNA levels of these ISGs
same,expression of ISGs in human breast and melanoma cancer cell lines,[2],induced the expression of a similar set of ISGs
same,γH2AX foci,[3],induced γH2AX foci accumulation
same,"number of CD8 T cells (per gram of tumor) that expressed granzyme B, IL-2, IFNγ, and perforin",[4]; [8],striking increase
same,tumor-infiltrating NK cells,[4]; [8],increased
same,macrophage numbers,[4]; any of the treatment groups,no changes in macrophage numbers
same,CD8 T cell infiltration,[4]; [9],even higher
same,cDC1 cells,[4]; [9],increased
same,tumor-infiltrating NK cells,[4]; [9],highest
same,PD-1 expression by CD8 T cells,[4]; compared to vehicle control group,reduced
same,CD8 T cell infiltration,[4]; monotherapy,substantially increased
same,number of tumor-infiltrating CD4 T cells or FoxP3+ Tregs,"[4]; mouse, in vivo",did not change
same,anti-tumor activity,[5],anti-tumor activity
same,in vivo CARM1 inhibition,[5],dose-dependent in vivo CARM1 inhibition
same,in vivo growth of RPMI-8226,[6],moderately slow the in vivo growth
same,sensitization of tumors to checkpoint blockade,[7]; [10],sensitized B16F10 melanomas to checkpoint blockade with a CTLA-4 mAb
same,survival,[7]; [10],significant survival benefit
same,B16F10 tumor growth,"[7]; oral, 150 mg/kg/day, B16F10 tumor bearing mice",significantly suppresses B16F10 tumor growth

# Reference: patent US20230201166A1, “METHODS FOR TREATING CANCER BY INHIBITING CARM1” (DANA-FARBER CANCER INSTITUTE, INC., priority 2020, published 2023)
